Assay: physchem
Assay type: physicochemical
Conditions: aqueous buffer, solubility of DHLA
Excerpt: Dihydrolipoic acid (DHLA) was obtained from Sigma (Cat #T8260).
Again, the PBS helped maintain the pH within a suitable pH range.

- solubility: > 76 mg/mL
SMILES: O=C(O)CCCC[C@@H](S)CCS (racemic) [DHLA, Dihydrolipoic acid]
